Numbers after ± are expanded uncertainties.
Legend:
[1] = wn = mass fraction of the nth substance listed; conditions: 100 kPa, Liquid, Vibrating tube method
[2] = refractive index (Na D-line) (dimensionless); wn = mass fraction of the nth substance listed; conditions: 100 kPa, Liquid, Standard Abbe refractometry

CCN(C=O)CC [N,N-diethylformamide] + O
298.15 K
Conditions | mass density, [1] [kg/m3] | refractive index, [2]
w1 = 0.009925 | 996.45 ± 0.11 | 1.33379 ± 0.00031
w1 = 0.04 | 995.04 ± 0.11 | 1.33758 ± 0.00031
w1 = 0.06998 | 993.7 ± 0.11 | 1.34136 ± 0.00032
w1 = 0.09919 | 992.49 ± 0.12 | 1.34512 ± 0.00032
w1 = 0.129 | 991.3 ± 0.12 | 1.34898 ± 0.00032
w1 = 0.16 | 989.97 ± 0.12 | 1.35302 ± 0.00032
w1 = 0.1897 | 988.8 ± 0.12 | 1.35684 ± 0.00032

CCN(C=O)CC [N,N-diethylformamide] + [Cl-].[Cs+]
288.15 K, w2 = 0.0013
Conditions | mass density [kg/m3] | refractive index
[1] | 910.38 ± 0.26 | –
[2] | – | 1.43686 ± 0.00037

CCN(C=O)CC [N,N-diethylformamide] + [Cl-].[K+]
Conditions | mass density, [1] [kg/m3] | refractive index, [2]
288.15 K, w2 = 0.0015 | 911.47 ± 0.27 | 1.43618 ± 0.00037
298.15 K, w2 = 0.0009 | 903.51 ± 0.25 | 1.43281 ± 0.00037
308.15 K, w2 = 0.0005 | 896.68 ± 0.24 | 1.42872 ± 0.00037

CCN(C=O)CC [N,N-diethylformamide] + [Cl-].[Na+]
Conditions | mass density, [1] [kg/m3] | refractive index, [2]
288.15 K, w2 = 0.0013 | 912.57 ± 0.26 | 1.43642 ± 0.00037
298.15 K, w2 = 0.0009 | 904.23 ± 0.25 | 1.43203 ± 0.00037
308.15 K, w2 = 0.0005 | 896.38 ± 0.24 | 1.42776 ± 0.00037

CCN(C=O)CC [N,N-diethylformamide] + [Cl-].[Rb+]
Conditions | mass density, [1] [kg/m3] | refractive index, [2]
288.15 K, w2 = 0.0016 | 910.95 ± 0.28 | 1.43675 ± 0.00037
298.15 K, w2 = 0.0011 | 902.43 ± 0.25 | 1.43253 ± 0.00037
308.15 K, w2 = 0.0008 | 894.54 ± 0.25 | 1.42819 ± 0.00037

[Cl-].[Cs+] [cesium chloride] + O
288.15 K, w1 = 0.6406
Conditions | mass density [kg/m3] | refractive index
[1] | 1893.82 ± 1.2 | –
[2] | – | 1.41772 ± 0.00032

[Cl-].[K+] [potassium chloride] + O
Conditions | mass density, [1] [kg/m3] | refractive index, [2]
288.15 K, w1 = 0.2483 | 1169.18 ± 0.67 | 1.36809 ± 0.00032
298.15 K, w1 = 0.2668 | 1174.11 ± 0.68 | 1.36838 ± 0.00032
308.15 K, w1 = 0.2768 | 1184.11 ± 0.68 | 1.36932 ± 0.00032

[Cl-].[Rb+] [rubidium chloride] + O
Conditions | mass density, [1] [kg/m3] | refractive index, [2]
288.15 K, w1 = 0.4652 | 1482.6 ± 0.87 | 1.38751 ± 0.00032
298.15 K, w1 = 0.4823 | 1495.24 ± 0.88 | 1.38769 ± 0.00032
308.15 K, w1 = 0.5033 | 1520.16 ± 0.9 | 1.38939 ± 0.00032

[Cl-].[Na+] [sodium chloride] + O
Conditions | mass density, [1] [kg/m3] | refractive index, [2]
288.15 K, w1 = 0.2631 | 1202.37 ± 0.69 | 1.381 ± 0.00032
298.15 K, w1 = 0.265 | 1197.1 ± 0.69 | 1.37938 ± 0.00031
308.15 K, w1 = 0.2666 | 1193.13 ± 0.69 | 1.37784 ± 0.00032
